These results are taken from patent publication US8389002B2, “Anti-cancer medicine both for diagnosing and treating cancer” (Youl Chon Chemical Co., Ltd., priority 2007, dated 2013).

Data set [1] can be described thus: Pharmacokinetics: change in blood plasma concentration as time goes by. As to conditions: male, Sprague-Dawley, rat, iv, 10 mg/kg. On the procedure:
The Sprague Dawley (SD) adult male rat was slightly anesthetized with ketamine and acepromazine. Then, the femoral vein was subject to cannulation with physiological salt solution and the artery was subject to cannulation with polyethylene tubing (PE-50, intramedic, Clay-Adams) in which the physiological salt solution of 40 I.U./mL was filled, for which the heparin treatment was performed. […] At 0 (blank), 1, 5, 15, 30, 60 and 120 minutes after the administration, the blood 0.3 mL was respectively sampled, which was then centrifugally separated (13,000 rpm, 3 minutes) to separate about 0.1 mL of the blood plasma. Then, it was deproteinated and then analyzed with HPLC.
It was used the HPLC method using a reverse phase C-18 column (Shim-pack CLS-ODS, 4.6 mm I.D. 250 mm L., […] particle diameter). To the sampled blood plasma 0.1 mL were applied an internal standard material solution 50 μL ([…] daunomycin), the methanol 100 μL and the ethyl acetate 1.0 mL. The mixture solution was subject to vortexing for 3 minutes and centrifugally separated for 3 minutes (3,000 rpm) to take the organic layer only (1.0 mL), which was then dried with speed-vac. The remnants were re-composed into a moveable phase of 300 μL and 100 μL of which was then directly injected to a HPLC system. As the moveable phase of the HPLC system, a solution of the deionized water (pH=2.5 by phosphoric acid):acetonitrile=6:4 was used and a flow rate was 1 mL/min. As a HPLC detection method, a fluorescent analysis method was used at 470 nm excitation wavelength and 565 nm emission wavelength. The doxorubicin standard solution for making a calibration curve was made by dissolving it in the methanol so that it became 0.05, 0.1, 0.5, 1 and 3 μg/mL. When preparing a biological sample calibration curve, the standard solution 100 μL of doxorubicin 0.05, 0.1, 0.5, 1 and 3 μg/mL was put instead of methanol 100 μL for pre-treatment. Then, a calibration curve was made from which the doxorubicin in the blood plasma was obtained.

In another data set the test system is hepatoma. The data set can be described thus: Tumor growth after administration in hepatoma model rat (MRI). It counts as in vivo. As to conditions: hepatoma SD-rat, 2 mg/kg tail vein, three times every 5 days, one week after last injection.

Description for hepatoma: In order to make a hepatoma model, the water in which diethyl nitrosamine was diluted in a ratio of 1:10,000 was supplied to 8 weeks old SD-rat every day for 12 weeks until the tumor was generated. […] It was checked with MRI whether the tumor was after 10 weeks breeding. […] Again, the MRI photographing was made. The phleboclysis was performed three times every 5 days. Then, at one week after the last phleboclysis, the sizes of the tumors were compared through the MRI photographing.

Usually clearance stands for a measure of how efficiently the substance is removed, as volume per time. High values mean a high capacity for elimination, low ones a low capacity for elimination. Usually half-life stands for the time needed for the level to fall by half in the phase considered. As usually defined, the AUC is the area under the concentration-time curve, a measure of exposure. In data set [1] (in vivo), `COc1cccc2c1C(=O)c1c(O)c3c(c(O)c1C2=O)C[C@@](O)(C(=O)CO)C[C@@H]3O[C@H]1C[C@H](N)[C@H](O)[C@H](C)O1` [FD, doxorubicin] yielded a clearance of 37.9 ± 15.8 mL/min/kg and a half-life of 51.6 ± 34 min. In data set [1], this molecule showed an exposure (AUC) of 4850 ng·h/mL. In the data set with hepatoma, the “size of the tumor in MRI photograph” value is “became larger”.
